Laboratory results: ChEMBL document CHEMBL1123826, “Nitrogen bridgehead compounds. 66. Bronchodilator nitrogen bridgehead compounds with a pyrimidinone moiety” (J Med Chem, 1987)

How the values were obtained:
Format in all cases: functional
Cavia porcellus [1] = species: Cavia porcellus; assay: Bronchodilator activity against acetylcholine-induced spasm in guinea pig; details: read-out: ID50 (the source's name)
Cavia porcellus [2] = species: Cavia porcellus; assay: Bronchodilator activity against histamine-induced spasm in guinea pig; details: read-out: ID50 (the source's name)
Cavia porcellus [3] = species: Cavia porcellus; assay: Bronchodilator activity against serotonin-induced spasm in guinea pig; details: read-out: ID50 (the source's name)
Homo sapiens = species: Homo sapiens; assay: Compound was tested for Bronchodilator activity against isolated human bronchus contracted by carbachol
[4] = Relative potency is ratio of IC50 of theophylline / IC50 was determined

Row | SMILES | ED50 (Cavia porcellus [1]) [µmol/kg] | ED50 (Cavia porcellus [2]) [µmol/kg] | ED50 (Cavia porcellus [3]) [µmol/kg] | IC50 (Homo sapiens) [uM l-1] | Relative potency [4]
1 | Cc1cccc2nc3c(c(=O)n12)CCC3 | 29.3 | 7.2 | 4.3 |  | 
2 | CC1CCCc2nc3c(c(=O)n21)CCCC3 (stereo unspecified) | 20.3 | 24.7 | 14 |  | 
3 | O=c1c2cc3c(cc2nc2n1CCCCC2)OCO3 | 22.7 | > 32 | 13.1 |  | 
4 | CCc1c(C)nc2ccccn2c1=O.Cl | 29.4 | 8.6 | 12 | 127 | 1.19
5 | O=c1c2c(nc3n1CCCCC3)CCCCCC2 | 2.26 | 33 | > 100 |  | 
6 | O=c1c2c(nc3n1CCCCCC3)CCCC2 | 58.5 | 27.1 | 44.6 |  | 
7 | O=c1c2ccccc2nc2n1CCCCCC2 | 61.8 | 61.8 | > 100 |  | 
8 | O=c1nc2n(c3c1CCCC3)CCC2 | > 100 | > 100 | 107 |  | 
9 | Cc1ccc2nc3c(c(=O)n2c1)CCC3 | 29.1 | 29.2 | 14.4 |  | 
10 | CC1CCn2c(nc3c(c2=O)CCCC3)C1 (stereo unspecified) | 29.9 | 25.7 | 39.3 |  | 
11 | S=c1c2c(nc3n1CCCCC3)CCCC2 | > 320 | > 320 | > 320 |  | 
12 | CCOC(=O)c1c[n+](C)c2n(c1=O)C(C)CCC2 (stereo unspecified) [RIMAZOLIUM METILSULFATE] | 31 | 8 | 14 |  | 
13 | S=c1c2c(nc3n1CCCCC3)CCC2 | > 320 | > 320 | > 320 |  | 
14 | CCOC(=O)c1ccc2c(=O)n3c(nc2c1)CCCC3 | > 32 | 15.1 | > 32 |  | 
15 | COc1ccccc1.Cn1c(=O)c2nc[nH]c2n(C)c1=O | 22 | 10 | 10 | 151 | 1
16 | O=c1nc2n(c3c1CCC3)CCC2 | > 100 | > 100 | > 100 |  | 
17 | CC1CCn2c1nc1ccccc1c2=O (stereo unspecified) | 45.8 | 27.3 | 29.4 |  | 
18 | COC(=O)c1ccc2nc3n(c(=O)c2c1)CCC3 | 44.1 | 27 | 11.7 |  | 
19 | Cc1ccn2c(=O)c3c(nc2c1)CCC3 | 29.6 | 15.7 | 22.6 |  | 
20 | CC1CCc2nc3ccccc3c(=O)n21 (stereo unspecified) | 48.2 | 10.4 | 12.2 |  | 
21 | COC(=O)c1ccc2nc3n(c(=O)c2c1)CCCC3 | > 32 | 16.8 | 12.3 |  | 
22 | O=c1c2c(nc3n1CCC3)CCCCCC2 | 100 | 164 | 57.1 |  | 
23 | CC1CCc2nc3c(c(=O)n2C1)CCCC3 (stereo unspecified) | 28.9 | 23.6 | 38.1 |  | 
24 | O=C(O)c1ccc2c(=O)n3c(nc2c1)CCCC3 | > 100 | > 100 | > 100 |  | 
25 | O=C(O)c1ccc2nc3n(c(=O)c2c1)CCC3 | > 100 | 215 | > 100 |  | 
26 | CCc1c(C)nc2c(C)cccn2c1=O | 36.4 | 5.1 | 12.3 |  | 
27 | O=c1c2c(nc3n1CCCC3)CCC2 | 23.7 | 25.7 | 24.1 |  | 
28 | CCc1c(C)nc2ccc(C)cn2c1=O | 24 | 12.4 | 16.6 |  | 
29 | Cc1ccc2nc3n(c(=O)c2c1)CCCCC3 | 16 | 25.3 | 44.7 |  | 
30 | Cl.O=c1c2c(nc3ccccn13)CCCC2 | 18.2 | 6.1 | 16.7 | 127 | 1.18
